# Legend:
# M. tuberculosis H37Rv = assay type: cell-based
# [1] = test system: 227-resistant mutants of M. tuberculosis H37rv; assay type: cell-based
# [2] = test system: MmpL3 over- (+ATc) expressing Mtb H37Rv; assay type: cell-based, M. tuberculosis
Structure (SMILES),estimated frequency of resistance (M. tuberculosis H37Rv),IC50 [1],susceptibility shift in MmpL3 over-expressing strain [2]
O=C(Nc1ccc(Cl)c(C(F)(F)F)c1)NC1CCCCC1 [Compound 227],1.5 × 10^−7,3.3 µM,–
CC[C@@H](CO)NCCN[C@@H](CC)CO [Ethambutol],–,–,no significant shifts

# Source: article PMC12041881, “Tailored phenyl ureas eradicate drug-resistant Mycobacterium tuberculosis by targeting mycolic acid cell wall assembly” (Chemical Science, 2025)
